Where a name gives a salt, the structure may show the parent alone. Read-outs that look alike come from different tables or passages of the source.
Experiments:
[1] = target: PDE4 enzyme; test: Inhibition of Phosphodiesterase Enzymes (PDE4), [3H]cAMP hydrolysis assay; type: biochemical; details: for IC50: PDE4 inhibition, 1 μM cAMP, 34° C., 20 minutes
Description: Inhibition of Phosphodiesterase Enzymes (PDE4)
In this assay, PDE4 enzyme converts [^3H] cAMP to the corresponding [^3H] 5′-AMP in proportion to the amount of PDE4 present. The [^3H] 5′-AMP then was quantitatively converted to free [^3H] adenosine and phosphate by the action of snake venom 5′-nucleotidase.
The assay was performed with modification of the method of Thompson and Appleman (Biochemistry; 1971; 10; 311-316) and Schwartz and Passoneau (Proc. Natl. Acad. Sci. U.S.A. 1974; 71; 3844-3848), both references incorporated herein by reference in their entirety, at 34° C. In a 200 ul total reaction mixture, the reaction mixture contained 12.5 mM of Tris, 5 mM MgCl2, 1 μM cAMP (cold) and ^3H cAMP (0.1 uCi), (Amersham). […] Drug samples were then added in the reaction mixture (25 μt/tube). The assay was initiated by addition of enzyme mix (75 μl) and the mixture was incubated for 20 minutes at 34° C. The reaction was stopped by boiling the tubes for 2 mins at 100° C. in a water bath. After cooling on ice for 5 minutes and addition of 50 ug/reaction of 5′-nucleotidase snake venom from Crotalus atrox incubation was carried out again for 20 min. at 34° C. The unreacted substrate was separated from (^3H) Adenosine by addition of Dowex AG 1-X8 (Biorad Lab), (400 ul) which was prequilibrated (1:1:1) in water and ethanol. Reaction mixture was then thoroughly mixed, placed on ice for 15 minutes, vortexed and centrifuged at 14,000 r.p.m. for 2 mins. After centrifugation, a sample of the supernatant was taken and added in 24 well optiplates containing Scintillant (1 ml) and mixed well. The samples in the plates were then determined for radioactivity in a Top Counter and the PDE4 activity was estimated. PDE4 enzyme was present in quantities that yield <30% total hydrolysis of substrate (linear assay conditions).
Results were expressed as percent inhibition (IC50) in nM concentrations. The IC50 values were determined from the concentration curves by nonlinear regression analysis.

[2] = test system: PDE4; test: EC50 of the PDE4 results table (method not given)

## COc1ccc(C(=O)Nc2c(Cl)cncc2Cl)c2c1oc1ccc(NC(=O)C(F)(F)F)cc12 [Example 14, N-(3,5-dichloropyrid-4-yl)-4-methoxy-8-trifluoroacetamido-dibenzo[b,d]furan-1-carboxamide]
[1]
  IC50: 7.01 nM
[2]
  EC50: 14.1 nM
other
  melting point: > 300 °C

## COc1ccc(C(=O)Nc2c(Cl)cncc2Cl)c2c1oc1ccc(NC(=O)OCC3CC3)cc12 [Example 18, N-(3,5-dichloropyrid-4-yl)-4-methoxy-8-cyclopropylmethoxycarboxamido-dibenzo[b,d]furan-1-carboxamide]
[1]
  IC50: 3.47 nM
[2]
  EC50: 19.1 nM
other
  melting point: 272 °C

## COc1ccc(C(=O)NCc2ccccc2)c2c1oc1ccc(NC(C)=O)cc12 [Example 43, N1-benzyl-4-methoxy-8-acetamido-dibenzo[b,d]furan-1-carboxamide]
[1]; PDE4 inhibition at 1 uM
  percent inhibition: 17.93% at 1 uM
other
  melting point: 264 to 265 °C

## COc1ccc(C(=O)Nc2ccccc2)c2c1oc1ccc(NC(C)=O)cc12 [Example 41, N1-phenyl-4-methoxy-8-acetamido-dibenzo[b,d]furan-1-carboxamide]
[1]
  IC50: 156 nM
other
  melting point: 252 °C

## CCNC(=S)Nc1ccc2oc3c(OC)ccc(C(=O)Nc4c(Cl)cncc4Cl)c3c2c1 [Example 44, N-(3,5-dichloropyrid-4-yl)-4-methoxy-8-(ethylaminothiocarboxamido)-dibenzo[b,d]furan-1-carboxamide]
[1]
  IC50: 1.72 nM
[2]
  EC50: 3.93 nM
other
  melting point: 260 °C

## COc1ccc(C(=O)Nc2cccnc2)c2c1oc1ccc(NC(C)=O)cc12 [Example 46, N1-(pyrid-3-yl)-4-methoxy-8-acetamido-dibenzo[b,d]furan-1-carboxamide]
[1]
  IC50: 134 nM
other
  melting point: > 250 °C

## COc1ccc(C(=O)Nc2c(Cl)cncc2Cl)c2c1oc1ccc(NC(C)=O)cc12 [Example 04, N-(3,5-dichloropyrid-4-yl)-4-methoxy-8-acetamido-dibenzo[b,d]furan-1-carboxamide]
[1]
  IC50: 1.18 nM
[2]
  EC50: 13.6 nM
other
  melting point: 252 °C

## CC(=O)Nc1ccc2oc3c(OC(F)F)ccc(C(=O)Nc4c(Cl)cncc4Cl)c3c2c1 [Example 34, N-(3,5-dichloropyrid-4-yl)-4-difluoromethoxy-8-acetamido-dibenzo[b,d]furan-1-carboxamide]
[1]
  IC50: 3.55 nM
[2]
  EC50: 14.8 nM
other
  melting point: 234 °C

## CCOC(=O)Nc1ccc2oc3c(OC)ccc(C(=O)Nc4c(Cl)cncc4Cl)c3c2c1 [Example 15, N-(3,5-dichloropyrid-4-yl)-4-methoxy-8-ethoxycarboxamido-dibenzo[b,d]furan-1-carboxamide]
[1]
  IC50: 15.1 nM
other
  melting point: 274 °C

## CCOC(=O)CNC(=O)Nc1ccc2oc3c(OC)ccc(C(=O)Nc4c(Cl)cncc4Cl)c3c2c1 [Example 50, N-(3,5-dichloropyrid-4-yl)-4-methoxy-8-(2-ethoxy-2-oxo-ethylaminocarbonylamino)-dibenzo[b,d]furan-1-carboxamide]
[1]
  IC50: 9.93 nM
[2]
  EC50: 147 nM
other
  melting point: > 250 °C

## CCS(=O)(=O)Nc1ccc2oc3c(OC)ccc(C(=O)Nc4c(Cl)cncc4Cl)c3c2c1 [Example 03, N-(3,5-dichloropyrid-4-yl)-4-methoxy-8-(ethanesulphonamido)-dibenzo[b,d]furan-1-carboxamide]
[1]
  IC50: 0.762 nM
[2]
  EC50: 7.39 nM

## COc1ccc(C(=O)Nc2c(Cl)cncc2Cl)c2c1oc1ccc(NC(=O)C3CC3)cc12 [Example 12, N-(3,5-dichloropyrid-4-yl)-4-methoxy-8-(cyclopropylcarbonylamino)-dibenzo[b,d]furan-1-carboxamide]
[1]
  IC50: 0.557 nM
[2]
  EC50: 16.2 nM

## CNC(=O)Nc1ccc2oc3c(OC)ccc(C(=O)Nc4c(Cl)cncc4Cl)c3c2c1 [Example 29, N-(3,5-dichloropyrid-4-yl)-4-methoxy-8-methylamino carboxamido-dibenzo[b,d]furan-1-carboxamide]
[1]
  IC50: 2.14 nM
[2]
  EC50: 19.3 nM

## COc1ccc(C(=O)Nc2c(Cl)cncc2Cl)c2c1oc1ccc(NC(=O)N3CCC(O)CC3)cc12 [Example 24, N-(3,5-dichloropyrid-4-yl)-4-methoxy-8-(4-hydroxypiperidin-1-ylcarboxamido)-dibenzo[b,d]furan-1-carboxamide]
[1]
  IC50: 3.01 nM
[2]
  EC50: 2.94 nM

## COc1ccc(C(=O)Nc2c(Cl)cncc2Cl)c2c1oc1ccc(NC(=O)c3ccco3)cc12 [Example 11, N-(3,5-dichloropyrid-4-yl)-4-methoxy-8-(fur-2-yl-carboxamido)-dibenzo[b,d]furan-1-carboxamide]
[1]
  IC50: 0.887 nM
[2]
  EC50: 4.34 nM

## CS(=O)(=O)Nc1ccc2oc3c(OC(F)F)ccc(C(=O)Nc4c(Cl)cncc4Cl)c3c2c1 [Example 31, N-(3,5-dichloropyrid-4-yl)-4-difluoromethoxy-8-methanesulfonamido-dibenzo[b,d]furan-1-carboxamide sodium salt]
[1]; sodium salt
  IC50: 1.43 nM
[2]; sodium salt
  EC50: 3.46 nM

## O=C(O)C(=O)Nc1ccc2oc3c(OC(F)F)ccc(C(=O)Nc4c(Cl)cncc4Cl)c3c2c1 [Example 38, N-(3,5-dichloropyrid-4-yl)-4-difluoromethoxy-8-hydroxycarbonylcarboxamido-dibenzo[b,d]furan-1-carboxamide]
[1]
  IC50: 1.41 nM
[2]
  EC50: 26.9 nM

## COc1ccc(C(=O)Nc2ccncc2)c2c1oc1ccc(NC(C)=O)cc12 [Example 49, N-(pyrid-4-yl)-4-methoxy-8-acetamido-dibenzo[b,d]furan-1-carboxamide]
[1]
  IC50: 13.2 nM
other
  melting point: 267 to 268 °C

## COc1ccc(NC(=O)c2ccc(OC)c3oc4ccc(NC(C)=O)cc4c23)cc1 [Example 42, N1-(4-methoxyphenyl)-4-methoxy-8-acetamido-dibenzo[b,d]furan-1-carboxamide]
[1]
  IC50: 959 nM
other
  melting point: 285 °C

## CCN(CC)C(=O)Nc1ccc2oc3c(OC)ccc(C(=O)Nc4c(Cl)cncc4Cl)c3c2c1 [Example 20, N-(3,5-dichloropyrid-4-yl)-4-methoxy-8-N,N-diethylaminocarboxamido-dibenzo[b,d]furan-1-carboxamide]
[1]
  IC50: 10.3 nM
[2]
  EC50: 8.29 nM
other
  melting point: > 250 °C

## CCOC(=O)CNc1ccc2oc3c(OC)ccc(C(=O)Nc4c(Cl)cncc4Cl)c3c2c1 [Example 52, N-(3,5-dichloropyrid-4-yl)-4-methoxy-8-(2-ethoxy-2-oxo-ethylamino)-dibenzo[b,d]furan-1-carboxamide]
[1]
  IC50: 8.13 nM
[2]
  EC50: 821 nM

Reference: US7393846B2, “Heterocyclic compounds useful for the treatment of inflammatory and allergic disorders” (Glenmark Pharmaceuticals, S.A., priority 2003, dated 2008)
